Entries after “also recorded” stand apart in the source; their conditions may differ.
Key:
[1] = system: microglia; assay: Pharmacological animal experiment: microglia clearance in mice fed PLX5622 crystal forms (IBA1 staining, Image j counting); format: in vivo, C57BL/6J mice; conditions: for 7-day clearance rate / 14-day clearance rate / 7-day number of cells / 14-day number of cells: C57BL/6J mice, in AIN-76A food; for 7-day clearance rate / 14-day clearance rate: administration every other day, average clearance rate of microglia; for 7-day clearance rate / 7-day number of cells: 7 days; for 14-day clearance rate / 14-day number of cells: 14 days; for 7-day number of cells / 14-day number of cells: average statistical number of microglia (total number in brains); for Microglia clearance rate compared with Form A: 7-day or 14-day clearance rate, mice
Procedure: Mice were adaptively fed for 3-6 days upon arrival in the mouse room, with AIN-76A food. Group A was administered PLX5622 compound Form A, and Group B was administered PLX5622 compound Form B.
Formal administration: Administration was conducted every other day, on days 1, 3, 5, 7, 9, 11, and 13. Each time of administration required weighing, and the amount was adjusted to 4 g per mouse (actual consumption around 3 g per mouse).
After anesthesia, mice were immobilized using tape or needles/pins, and the fur on the lateral thorax was lifted with forceps. The skin was then cut with scissors to expose the white sternum. The diaphragm was carefully incised with fine scissors, taking care not to damage the above heart.
A small incision was made on the right atrium. The heart was fixed with forceps, and an injection needle was inserted into the left ventricle from the apex of the heart at an angle roughly parallel to the left-right midline of the heart.
Sucrose gradient dehydration: The mouse brains were fixed in 4% paraformaldehyde overnight and then dehydrated with 20% sucrose solution until the material sank to the bottom, followed by dehydration with 30% sucrose solution until the material sank to the bottom. Embedding and sectioning: get 25-40 μm sections, which are the tissues that need to be stained.
• 1. After washing the sections, blocking was initiated with 5% BSA in PBST for 2 hours. • 2. Incubation with the primary antibody, IBA1 (1:500) in 1% BSA in PBST, at 4° C. for at least 14 hours. • 3. Incubation with Alexa Fluor-conjugated secondary antibody (1:500) in 1% BSA in PBST, at room temperature for 2 hours. • 4. Washed with PBS 3-5 times for 10 minutes each, stained with DAPI, followed by addition of anti-fade reagent, dried overnight, and then photographed and scanned for analysis.
Image j counting: All microglia with complete morphology need to be counted.
Among them, the mice are all 3-month-old male mice; the clearance rates are the average clearance rate and the average statistical number of microglia (total number in brains).

[2] = Drying transformation relationship of Form A-F (vacuum drying, XRPD); conditions: for Description / XRPD results: 60-80° C. vacuum drying; for Stability / conversion of crystal form on drying: dried at high temperatures, solvent removed
[3] = Stability tests of crystal forms under accelerated and low-temperature storage (XRPD, HPLC); format: physicochemical; conditions: for Polymorphic changes on storage (XRPD): accelerated test conditions (40° C., 75% RH) and low-temperature storage conditions (−20° C.)
[4] = Pharmacokinetic determination in rats (feed administration, plasma and brain); format: in vivo; conditions: 1200 ppm in AIN-76A standard feed, 7-day and 14-day groups, Cmax and AUC
Text: Plasma or brain samples from the 2 groups were collected for pharmacokinetic (PK) parameter analysis. For the 7-day group, plasma samples were collected on day 1, day 3, and day 7; after the rats were euthanized on day 7, brain tissue samples were collected. For the […], plasma samples were collected from rats on day 10 and 14; on day 14, the mice were euthanized, and brain tissue samples were collected.
For the processing of plasma samples, rats were anesthetized on days 1, 3, 7 and 10 and 14, and approximately 150 μL of blood was collected via cardiac puncture into anticoagulant centrifuge tubes containing K 2 EDTA. Within 15 minutes of sampling, plasma was obtained by centrifugation at 2000 g for 5 minutes at 4° C. and stored at below −60° C. until analysis. For the processing of brain tissue samples, the rats were euthanized on day 7 and 14, and then the brain tissue was collected. The residual blood on the surface of the tissue was washed away with normal saline, dried with filter paper, weighed, and frozen in dry ice, then store in a refrigerator below −60° C. until sample analysis. Pharmacokinetic (PK) parameters Cmax and AUC were calculated based on a non-compartmental model using WinNonlin 8.2 software. Drug concentrations in mouse plasma and brain tissue were determined.

Structure (SMILES) | Stability / conversion of crystal form on drying [2] | Purity (by HPLC %) ([3]; 40° C./75% RH, 5 Days) [%] | XRPD ([3]; 40° C./75% RH, 5 Days) | Purity (by HPLC %) ([3]; 40° C./75% RH, 10 Days) [%] | XRPD ([3]; 40° C./75% RH, 10 Days) | Purity (by HPLC %) ([3]; Initial, 0 Day) [%] | XRPD ([3]; Initial, 0 Day) | Polymorphic changes on storage (XRPD) [3] | Purity (by HPLC %) ([3]; −20° C., 10 months) [%] | XRPD ([3]; −20° C., 10 months) | Description ([2]; 24 hours) | XRPD results ([2]; 24 hours) | 7-day clearance rate [1] [%] | 14-day clearance rate [1] [%] | 7-day number of cells [1] | 14-day number of cells [1] | further results
COc1ncc(F)cc1CNc1ccc(Cc2c[nH]c3ncc(C)cc23)c(F)n1 [Form A, 6-Fluoro-N-((5-fluoro-2-methoxypyridin-3-yl)methyl)-5-((5-methyl-1H-pyrrolo[2,3-b]pyridin-3-yl)methyl) pyridin-2-amine] | remain stable | 99.90 | Form A | 99.90 | Form A | 99.90 | Form A | did not undergo any polymorphic changes | 99.90 | Form A |  |  | 72.6 | 75.1 | (1337) | (922) | Description ([2]; 2 days): White to off-white; XRPD results ([2]; 2 days): Form A; Individual Impurity (RRT/%) RRT = 0.33 ([3]; 40° C./75% RH, 5 Days): 0.06%; Individual Impurity (RRT/%) RRT = 1.50 ([3]; 40° C./75% RH, 5 Days): 0.04%; Individual Impurity (RRT/%) RRT = 0.33 ([3]; 40° C./75% RH, 10 Days): 0.06%; Individual Impurity (RRT/%) RRT = 1.50 ([3]; 40° C./75% RH, 10 Days): 0.04%; Individual Impurity (RRT/%) RRT = 0.33 ([3]; Initial, 0 Day): 0.06%; Individual Impurity (RRT/%) RRT = 1.50 ([3]; Initial, 0 Day): 0.04%; Individual Impurity (RRT/%) RRT = 0.33 ([3]; −20° C., 10 months): 0.06%; Individual Impurity (RRT/%) RRT = 1.50 ([3]; −20° C., 10 months): 0.04%
COc1ncc(F)cc1CNc1ccc(Cc2c[nH]c3ncc(C)cc23)c(F)n1 [Form B, 6-Fluoro-N-((5-fluoro-2-methoxypyridin-3-yl)methyl)-5-((5-methyl-1H-pyrrolo[2,3-b]pyridin-3-yl)methyl) pyridin-2-amine] | remain stable | 99.92 | Form B | 99.92 | Form B | 99.92 | Form B | did not undergo any polymorphic changes | 99.92 | Form B |  |  | 87 | 90 | (482) | (377) | Pharmacokinetic performance [4]: better pharmacokinetic performance; Microglia clearance rate compared with Form A [1]: better than Form A; Microglia clearance rate compared with Form A ([1]; listed as crystal form B): better clearance rate of microglia cells at 7 or 14 days compared to crystal form A; also recorded: higher rate of microglia cell clearance at 7 days or 14 days; Description ([2]; 3 days): White to off-white; XRPD results ([2]; 3 days): Form B; Individual Impurity (RRT/%) RRT = 1.04 ([3]; 40° C./75% RH, 5 Days): 0.05%; Individual Impurity (RRT/%) RRT = 1.29 ([3]; 40° C./75% RH, 5 Days): 0.03%; Individual Impurity (RRT/%) RRT = 1.04 ([3]; 40° C./75% RH, 10 Days): 0.05%; Individual Impurity (RRT/%) RRT = 1.29 ([3]; 40° C./75% RH, 10 Days): 0.03%; Individual Impurity (RRT/%) RRT = 1.04 ([3]; Initial, 0 Day): 0.05%; Individual Impurity (RRT/%) RRT = 1.29 ([3]; Initial, 0 Day): 0.03%; Individual Impurity (RRT/%) RRT = 1.04 ([3]; −20° C., 10 months): 0.05%; Individual Impurity (RRT/%) RRT = 1.29 ([3]; −20° C., 10 months): 0.03%
COc1ncc(F)cc1CNc1ccc(Cc2c[nH]c3ncc(C)cc23)c(F)n1 [Form C, 6-Fluoro-N-((5-fluoro-2-methoxypyridin-3-yl)methyl)-5-((5-methyl-1H-pyrrolo[2,3-b]pyridin-3-yl)methyl) pyridin-2-amine] | converted to Form A |  |  |  |  |  |  |  |  |  | White to off-white | Form A |  |  |  |  | 

More lines, main results first:

Stability / conversion of crystal form on drying [2] | Purity (by HPLC %) ([3]; 40° C./75% RH, 5 Days) [%] | XRPD ([3]; 40° C./75% RH, 5 Days) | Purity (by HPLC %) ([3]; 40° C./75% RH, 10 Days) [%] | XRPD ([3]; 40° C./75% RH, 10 Days) | Purity (by HPLC %) ([3]; Initial, 0 Day) [%] | XRPD ([3]; Initial, 0 Day) | Polymorphic changes on storage (XRPD) [3] | Purity (by HPLC %) ([3]; −20° C., 10 months) [%] | XRPD ([3]; −20° C., 10 months) | Description ([2]; 24 hours) | XRPD results ([2]; 24 hours) | Structure (SMILES) | 7-day clearance rate [1] [%] | 14-day clearance rate [1] [%] | 7-day number of cells [1] | 14-day number of cells [1] | further results
converting it to Form A |  |  |  |  |  |  |  |  |  | White to off-white | Form A | COc1ncc(F)cc1CNc1ccc(Cc2c[nH]c3ncc(C)cc23)c(F)n1 [Form D, 6-Fluoro-N-((5-fluoro-2-methoxypyridin-3-yl)methyl)-5-((5-methyl-1H-pyrrolo[2,3-b]pyridin-3-yl)methyl) pyridin-2-amine] |  |  |  |  | 
 |  |  |  |  |  |  |  |  |  | White to off-white | Form A + B | COc1ncc(F)cc1CNc1ccc(Cc2c[nH]c3ncc(C)cc23)c(F)n1 [Form E, 6-Fluoro-N-((5-fluoro-2-methoxypyridin-3-yl)methyl)-5-((5-methyl-1H-pyrrolo[2,3-b]pyridin-3-yl)methyl) pyridin-2-amine] |  |  |  |  | 
 |  |  |  |  |  |  |  |  |  | White to off-white | Form A + B | COc1ncc(F)cc1CNc1ccc(Cc2c[nH]c3ncc(C)cc23)c(F)n1 [Form F, 6-Fluoro-N-((5-fluoro-2-methoxypyridin-3-yl)methyl)-5-((5-methyl-1H-pyrrolo[2,3-b]pyridin-3-yl)methyl) pyridin-2-amine] |  |  |  |  | 

Reference: patent publication US20250250268A1 (SHANGHAI HAOYUAN MEDCHEMEXPRESS CO., LTD., priority 2022, published 2025)
